# Assay results from patent US20150322033A1, “ANTIBACTERIAL AGENT” (priority 2012, published 2015).
# Tested on: S. aureus Mu50
# Experiment: microbe, parasite or virus in culture
# Assay type: cell-based, Staphylococcus aureus
# Settings: (MIC value for S. aureus FDA209P)/(MIC value for S. aureus Mu50)
# Description: (§1) S. aureus Mu50 (refer to Hiramatsu, K., Hanaki H., et al., J. Antimicrob. Chemother., 1997, 40(1), 135-6) or S. aureus FDA209P (ATCC 6538P) was cultured overnight at 37° C. in 4 mL of TBS (Tryptical Soy Broth, produced by Becton Dickinson) with shaking. After completion of the culture, the cells were suspended in fresh TBS to prepare a cell suspension showing an absorbance of 0.3 at 578 nm. Then, the cell suspension was diluted 500 times with CAMHB mentioned above.
# (§2) CAMHB containing each test compound at each of the aforementioned concentrations was added to each well of a 96-well plate in a volume of 50 μL/well, the aforementioned cell suspension diluted 500 time was added to the well in a volume of 50 μL/well, and stationary culture was carried out overnight at 37° C.
# (§3) MIC values (mg/L) of the flavones and quinolones against the strains were measured in the same manner as that of the measurement of MIC of Example 1, except that CAMHB containing each of the aforementioned flavones and quinolones prepared in Example 2 was used instead of CAMHB containing each of the test compounds.
# (§4) MIC values of the flavones and quinolone for the strains were measured in the same manners as those of Example 1, except that S. aureus Mu50 NR-1 was also used as Staphylococcus aureus in addition to S. aureus FDA209P and S. aureus Mu50, cell suspensions of the strains were prepared.
# (§5) In the same manner as that of Example 1, MIC values of M-246, M-21, J-Q21, and J-Q12.1 for Staphylococcus aureus were measured. M-246 and M-21 were obtained as commercial products, and as J-Q21 and J-Q12.1, those synthesized in Examples 6 and 7 were used.
# 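For MIC ratio in this document: ratio is FDA209P MIC divided by Mu50 MIC.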
row,Structure (SMILES),MIC ratio
1,"O.O=c1c(O)c(-c2ccc(O)c(O)c2)oc2cc(O)cc(O)c12 [No. 1, 3,3′,4′,5,7-Pentahydroxyflavone Hydrate]",2
2,"O.O=c1c(O)c(-c2ccc(O)cc2)oc2cc(O)cc(O)c12 [No. 4, 3,4′,5,7-Tetrahydroxyflavone Hydrate]",2
3,"O=c1cc(-c2ccc(O)c(O)c2)oc2cc(O)cc(O)c12 [No. 6, 3′,4′,5,7-Tetrahydroxyflavone]",4
4,"COc1ccc2c(=O)cc(-c3ccccc3)oc2c1 [No. 15, 7-Methoxyflavone]",4
5,"COc1cc(O)c2c(=O)c(OC)c(-c3cc(O)c(OC)c(OC)c3)oc2c1 [No. 24, 5-hydroxy-2-(3-hydroxy-4,5-dimethoxyphenyl)-3,7-dimethoxychromen-4-one]",16
6,"COc1cc(-c2oc3c(OC)c(O)cc(O)c3c(=O)c2O)ccc1O [No. 38, 3,5,7-trihydroxy-2-(4-hydroxy-3-methoxyphenyl)-8-methoxychromen-4-one]",4
7,"COc1cc(O)c2c(=O)c(OC)c(-c3ccc(O)c(OC)c3)oc2c1 [No. 66, 5-hydroxy-2-(4-hydroxy-3-methoxyphenyl)-3,7-dimethoxychromen-4-one]",4

# Same assay, conditions: Staphylococcus aureus, MU50, read-out: MIC (mg/L) Mu50, Example 1, Tables 1 to 10
row,Structure (SMILES),MIC
1,"O.O=c1c(O)c(-c2ccc(O)c(O)c2)oc2cc(O)cc(O)c12 [No. 1, 3,3′,4′,5,7-Pentahydroxyflavone Hydrate]",≤ 32 mg/L
2,"O.O=c1c(O)c(-c2ccc(O)cc2)oc2cc(O)cc(O)c12 [No. 4, 3,4′,5,7-Tetrahydroxyflavone Hydrate]",8 mg/L
3,"COc1ccc2c(=O)cc(-c3ccccc3)oc2c1 [No. 15, 7-Methoxyflavone]",32 mg/L
4,"COc1cc(O)c2c(=O)c(OC)c(-c3cc(O)c(OC)c(OC)c3)oc2c1 [No. 24, 5-hydroxy-2-(3-hydroxy-4,5-dimethoxyphenyl)-3,7-dimethoxychromen-4-one]",8 mg/L
5,"COc1cc(-c2oc3c(OC)c(O)cc(O)c3c(=O)c2O)ccc1O [No. 38, 3,5,7-trihydroxy-2-(4-hydroxy-3-methoxyphenyl)-8-methoxychromen-4-one]",32 mg/L
6,"COc1cc(O)c2c(=O)c(OC)c(-c3ccc(O)c(OC)c3)oc2c1 [No. 66, 5-hydroxy-2-(4-hydroxy-3-methoxyphenyl)-3,7-dimethoxychromen-4-one]",32 mg/L

# Same assay, conditions: Staphylococcus aureus, MU50, read-out: MIC (mg/L) S. aureus Mu50, Example 2, Table 12
row,Structure (SMILES),MIC
1,"O.O=c1c(O)c(-c2ccc(O)c(O)c2)oc2cc(O)cc(O)c12 [No. 1, 3,3′,4′,5,7-Pentahydroxyflavone Hydrate]",32 mg/L
2,"O.O=c1c(O)c(-c2ccc(O)cc2)oc2cc(O)cc(O)c12 [No. 4, 3,4′,5,7-Tetrahydroxyflavone Hydrate]",8 mg/L
3,"O=c1cc(-c2ccc(O)c(O)c2)oc2cc(O)cc(O)c12 [No. 6, 3′,4′,5,7-Tetrahydroxyflavone]",8 mg/L
4,"COc1ccc2c(=O)cc(-c3ccccc3)oc2c1 [No. 15, 7-Methoxyflavone]",32 mg/L
5,"COc1cc(O)c2c(=O)c(OC)c(-c3cc(O)c(OC)c(OC)c3)oc2c1 [No. 24, 5-hydroxy-2-(3-hydroxy-4,5-dimethoxyphenyl)-3,7-dimethoxychromen-4-one]",8 mg/L
6,"COc1cc(-c2oc3c(OC)c(O)cc(O)c3c(=O)c2O)ccc1O [No. 38, 3,5,7-trihydroxy-2-(4-hydroxy-3-methoxyphenyl)-8-methoxychromen-4-one]",32 mg/L
7,"COc1cc(O)c2c(=O)c(OC)c(-c3ccc(O)c(OC)c3)oc2c1 [No. 66, 5-hydroxy-2-(4-hydroxy-3-methoxyphenyl)-3,7-dimethoxychromen-4-one]",32 mg/L

# Tested on: S. aureus FDA209P (ATCC 6538P)
# Experiment: microbe, parasite or virus in culture
# Assay type: cell-based, Staphylococcus aureus
# Settings: Staphylococcus aureus; Example 1, Tables 1 to 10; read-out: MIC (mg/L) FDA209P
# Description: as §1, §2, §3, §4, §5
row,Structure (SMILES),MIC
1,"O.O=c1c(O)c(-c2ccc(O)c(O)c2)oc2cc(O)cc(O)c12 [No. 1, 3,3′,4′,5,7-Pentahydroxyflavone Hydrate]",64 mg/L
2,"O.O=c1c(O)c(-c2ccc(O)cc2)oc2cc(O)cc(O)c12 [No. 4, 3,4′,5,7-Tetrahydroxyflavone Hydrate]",16 mg/L
3,"O=c1cc(-c2ccc(O)c(O)c2)oc2cc(O)cc(O)c12 [No. 6, 3′,4′,5,7-Tetrahydroxyflavone]",32 mg/L
4,"COc1ccc2c(=O)cc(-c3ccccc3)oc2c1 [No. 15, 7-Methoxyflavone]",128 mg/L
5,"COc1cc(O)c2c(=O)c(OC)c(-c3cc(O)c(OC)c(OC)c3)oc2c1 [No. 24, 5-hydroxy-2-(3-hydroxy-4,5-dimethoxyphenyl)-3,7-dimethoxychromen-4-one]",128 mg/L
6,"COc1cc(-c2oc3c(OC)c(O)cc(O)c3c(=O)c2O)ccc1O [No. 38, 3,5,7-trihydroxy-2-(4-hydroxy-3-methoxyphenyl)-8-methoxychromen-4-one]",128 mg/L
7,"COc1cc(O)c2c(=O)c(OC)c(-c3ccc(O)c(OC)c3)oc2c1 [No. 66, 5-hydroxy-2-(4-hydroxy-3-methoxyphenyl)-3,7-dimethoxychromen-4-one]",128 mg/L

# Same assay, conditions: Staphylococcus aureus; Example 2, Table 12; read-out: MIC (mg/L) S. aureus FDA209P
row,Structure (SMILES),MIC
1,"O.O=c1c(O)c(-c2ccc(O)c(O)c2)oc2cc(O)cc(O)c12 [No. 1, 3,3′,4′,5,7-Pentahydroxyflavone Hydrate]",64 mg/L
2,"O.O=c1c(O)c(-c2ccc(O)cc2)oc2cc(O)cc(O)c12 [No. 4, 3,4′,5,7-Tetrahydroxyflavone Hydrate]",16 mg/L
3,"O=c1cc(-c2ccc(O)c(O)c2)oc2cc(O)cc(O)c12 [No. 6, 3′,4′,5,7-Tetrahydroxyflavone]",32 mg/L
4,"COc1ccc2c(=O)cc(-c3ccccc3)oc2c1 [No. 15, 7-Methoxyflavone]",128 mg/L
5,"COc1cc(O)c2c(=O)c(OC)c(-c3cc(O)c(OC)c(OC)c3)oc2c1 [No. 24, 5-hydroxy-2-(3-hydroxy-4,5-dimethoxyphenyl)-3,7-dimethoxychromen-4-one]",128 mg/L
6,"COc1cc(-c2oc3c(OC)c(O)cc(O)c3c(=O)c2O)ccc1O [No. 38, 3,5,7-trihydroxy-2-(4-hydroxy-3-methoxyphenyl)-8-methoxychromen-4-one]",128 mg/L
7,"COc1cc(O)c2c(=O)c(OC)c(-c3ccc(O)c(OC)c3)oc2c1 [No. 66, 5-hydroxy-2-(4-hydroxy-3-methoxyphenyl)-3,7-dimethoxychromen-4-one]",128 mg/L

# Same assay, conditions: Staphylococcus aureus; Example 3, Table 13; read-out: MIC (mg/L) FDA209P (w, w)
row,Structure (SMILES),MIC
1,"O.O=c1c(O)c(-c2ccc(O)c(O)c2)oc2cc(O)cc(O)c12 [No. 1, 3,3′,4′,5,7-Pentahydroxyflavone Hydrate]",64 mg/L
2,"O.O=c1c(O)c(-c2ccc(O)cc2)oc2cc(O)cc(O)c12 [No. 4, 3,4′,5,7-Tetrahydroxyflavone Hydrate]",16 mg/L
3,"O=c1cc(-c2ccc(O)c(O)c2)oc2cc(O)cc(O)c12 [No. 6, 3′,4′,5,7-Tetrahydroxyflavone]",32 mg/L
4,"COc1ccc2c(=O)cc(-c3ccccc3)oc2c1 [No. 15, 7-Methoxyflavone]",128 mg/L
5,"COc1cc(O)c2c(=O)c(OC)c(-c3cc(O)c(OC)c(OC)c3)oc2c1 [No. 24, 5-hydroxy-2-(3-hydroxy-4,5-dimethoxyphenyl)-3,7-dimethoxychromen-4-one]",128 mg/L
6,"COc1cc(-c2oc3c(OC)c(O)cc(O)c3c(=O)c2O)ccc1O [No. 38, 3,5,7-trihydroxy-2-(4-hydroxy-3-methoxyphenyl)-8-methoxychromen-4-one]",128 mg/L
7,"COc1cc(O)c2c(=O)c(OC)c(-c3ccc(O)c(OC)c3)oc2c1 [No. 66, 5-hydroxy-2-(4-hydroxy-3-methoxyphenyl)-3,7-dimethoxychromen-4-one]",128 mg/L

# Tested on: S. aureus Mu50 NR1-1
# Experiment: MIC by broth microdilution, S. aureus Mu50 NR1-1
# Assay type: cell-based
# Settings: Staphylococcus aureus, MU50NR11; Example 3, Table 13; read-out: MIC (mg/L) Mu50 NR1-1 (S80F, w)
# Description: as §4
# S. aureus Mu50 NR1-1 mentioned in Table 13 is a strain selected stepwise from the clinically isolated S. aureus Mu50 strain with deoxynybomycin, and it has a topoisomerase IV encoded by parC in which a […] (see, Hiramatsu K. et al., J. Antimicrob. Agents, 2012, June; 39 (6), 478-85).
# In Table 13, the descriptions in the parentheses after the strains indicate the mutated amino acid residue and its position, as represented by (the mutation of topoisomerase IV resulting from the mutation of parCand the mutation of DNA gyrase resulting from the mutation of gyrA). The character “w” means wild-type, representing without mutation.
row,Structure (SMILES),MIC
1,"O.O=c1c(O)c(-c2ccc(O)c(O)c2)oc2cc(O)cc(O)c12 [No. 1, 3,3′,4′,5,7-Pentahydroxyflavone Hydrate]",64 mg/L
2,"O.O=c1c(O)c(-c2ccc(O)cc2)oc2cc(O)cc(O)c12 [No. 4, 3,4′,5,7-Tetrahydroxyflavone Hydrate]",16 mg/L
3,"O=c1cc(-c2ccc(O)c(O)c2)oc2cc(O)cc(O)c12 [No. 6, 3′,4′,5,7-Tetrahydroxyflavone]",32 mg/L
4,"COc1ccc2c(=O)cc(-c3ccccc3)oc2c1 [No. 15, 7-Methoxyflavone]",128 mg/L
5,"COc1cc(O)c2c(=O)c(OC)c(-c3cc(O)c(OC)c(OC)c3)oc2c1 [No. 24, 5-hydroxy-2-(3-hydroxy-4,5-dimethoxyphenyl)-3,7-dimethoxychromen-4-one]",128 mg/L
6,"COc1cc(-c2oc3c(OC)c(O)cc(O)c3c(=O)c2O)ccc1O [No. 38, 3,5,7-trihydroxy-2-(4-hydroxy-3-methoxyphenyl)-8-methoxychromen-4-one]",64 mg/L
7,"COc1cc(O)c2c(=O)c(OC)c(-c3ccc(O)c(OC)c3)oc2c1 [No. 66, 5-hydroxy-2-(4-hydroxy-3-methoxyphenyl)-3,7-dimethoxychromen-4-one]",128 mg/L
